According to PubChem BioAssay AID256 (DTP/NCI, 2004):
Several values for one entry are separate records, joined by “and”; a condition that tells them apart may be missing. Identical values can stand only once. Toxic doses and inconclusive results are not listed.

Tested on: CD2F1 mice, L1210 leukemia ip, survival T/C
Test: NCI In Vivo Anticancer Drug Screen. Data for tumor model L1210 Leukemia (intraperitoneal) in CD2F1 (CDF1) mice
Details: higher = longer survival
Procedure, shortened: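 Activity against a transplanted murine tumor was judged by comparing the compound group with a vehicle group. The outcome in the treated animals was divided by that in the controls.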

[1] = endpoint: mean survival time, dose: 100.0 mg/kg/injection, schedule: Q01DX009 (ip), vehicle: Klucel (hydroxypropylcellulose) (HPC)
[2] = endpoint: mean survival time, dose: 200.0 mg/kg/injection, schedule: Q01DX009 (ip), vehicle: Klucel (hydroxypropylcellulose) (HPC)
[3] = endpoint: mean survival time, dose: 50.0 mg/kg/injection, schedule: Q01DX009 (ip), vehicle: saline with Tween-80
[4] = endpoint: mean survival time, dose: 100.0 mg/kg/injection, schedule: Q01DX009 (ip), vehicle: saline with Tween-80
[5] = endpoint: mean survival time, dose: 100.0 mg/kg/injection, schedule: Q04DX003 (ip), vehicle: saline with Tween-80
[6] = endpoint: mean survival time, dose: 200.0 mg/kg/injection, schedule: Q01DX009 (ip), vehicle: saline with Tween-80
[7] = endpoint: mean survival time, dose: 200.0 mg/kg/injection, schedule: Q04DX003 (ip), vehicle: saline with Tween-80
[8] = endpoint: mean survival time, dose: 12.5 mg/kg/injection, schedule: Q01DX009 (ip), vehicle: saline
[9] = endpoint: mean survival time, dose: 25.0 mg/kg/injection, schedule: Q01DX009 (ip), vehicle: saline
[10] = endpoint: mean survival time, dose: 400.0 mg/kg/injection, schedule: Q04DX003 (ip), vehicle: saline with Tween-80
[11] = endpoint: mean survival time, dose: 50.0 mg/kg/injection, schedule: Q01DX009 (ip), vehicle: saline
[12] = endpoint: mean survival time, dose: 75.0 mg/kg/injection, schedule: Q04DX003 (ip), vehicle: saline
[13] = endpoint: mean survival time, dose: 100.0 mg/kg/injection, schedule: Q04DX003 (ip), vehicle: saline
[14] = endpoint: mean survival time, dose: 200.0 mg/kg/injection, schedule: Q04DX003 (ip), vehicle: saline
[15] = endpoint: mean survival time, dose: 50.0 mg/kg/injection, schedule: Q01DX009 (ip), vehicle: Klucel (hydroxypropylcellulose) (HPC)
[16] = endpoint: mean survival time, dose: 50.0 mg/kg/injection, schedule: Q04DX003 (ip), vehicle: saline
[17] = endpoint: mean survival time, dose: 100.0 mg/kg/injection, schedule: Q01DX001 (ip), vehicle: saline
[18] = endpoint: mean survival time, dose: 400.0 mg/kg/injection, schedule: Q01DX009 (ip), vehicle: saline with Tween-80

Cc1ccc(S(=O)(=O)NC2CCC(C(=O)O)CC2)cc1 (centres undefined)
T/C [1]: 103 % of control
T/C [2]: 103 % of control
T/C (endpoint: mean survival time, dose: 400.0 mg/kg/injection, schedule: Q01DX009 (ip), vehicle: Klucel (hydroxypropylcellulose) (HPC)): 92 % of control

CC(S)c1ccccc1 (centres undefined)
T/C [3]: 90 % of control
T/C [4]: 102 % of control
T/C [5]: 104 % of control
T/C [6]: 104 % of control
T/C [7]: 98 % of control

N=[N+]=CC(=O)OCC(N)C(=O)O (centres undefined)
T/C (endpoint: mean survival time, dose: 1.0 mg/kg/injection, schedule: Q03HX016 (ip), vehicle: saline): 168 % of control
T/C (endpoint: mean survival time, dose: 2.0 mg/kg/injection, schedule: Q03HX016 (ip), vehicle: saline): 168 % of control
T/C (endpoint: mean survival time, dose: 2.0 mg/kg/injection, schedule: Q03HX024 (ip), vehicle: saline): 153 % of control and 163 % of control
T/C (endpoint: mean survival time, dose: 4.0 mg/kg/injection, schedule: Q03HX016 (ip), vehicle: saline): 182 % of control
T/C (endpoint: mean survival time, dose: 4.0 mg/kg/injection, schedule: Q03HX024 (ip), vehicle: saline): 171 % of control and 174 % of control
T/C (endpoint: mean survival time, dose: 8.0 mg/kg/injection, schedule: Q03HX016 (ip), vehicle: saline): 115 % of control
T/C (endpoint: mean survival time, dose: 8.0 mg/kg/injection, schedule: Q03HX024 (ip), vehicle: saline): 113 % of control and 115 % of control
T/C [8]: 167 % of control
T/C (endpoint: mean survival time, dose: 25.0 mg/kg/injection, schedule: Q01DX007 (ip), vehicle: saline): 122 % of control
T/C [9]: 100 % of control
T/C (endpoint: mean survival time, dose: 50.0 mg/kg/injection, schedule: Q01DX007 (ip), vehicle: saline): 96 % of control
T/C (endpoint: mean survival time, dose: 50.0 mg/kg/injection, schedule: Q03DX003 (ip), vehicle: saline): 151 % of control

COc1ccc(/C=N\N2C(=O)/C(=C\c3ccc(OC)cc3)SC2=S)cc1
T/C [5]: 97 % of control
T/C [7]: 93 % of control
T/C [10]: 89 % of control

COc1ccc2[nH]c(=O)c3c(c2c1)CCC(OC(=O)c1ccccc1)C3 (centres undefined)
T/C [8]: 104 % of control
T/C (endpoint: mean survival time, dose: 18.8 mg/kg/injection, schedule: Q04DX003 (ip), vehicle: saline): 104 % of control
T/C [9]: 97 % of control
T/C (endpoint: mean survival time, dose: 37.5 mg/kg/injection, schedule: Q04DX003 (ip), vehicle: saline): 101 % of control
T/C [11]: 98 % of control
T/C [12]: 97 % of control

CC(=O)NS(=O)(=O)c1ccc(NC(=O)/C=C/C(=O)O)cc1
T/C [13]: 100 % of control
T/C [14]: 100 % of control
T/C (endpoint: mean survival time, dose: 400.0 mg/kg/injection, schedule: Q04DX003 (ip), vehicle: saline): 100 % of control

CO[Si](c1ccccc1)(c1ccccc1)c1cccc2ccccc12
T/C [12]: 89 % of control
T/C (endpoint: mean survival time, dose: 150.0 mg/kg/injection, schedule: Q04DX003 (ip), vehicle: saline): 91 % of control
T/C (endpoint: mean survival time, dose: 300.0 mg/kg/injection, schedule: Q04DX003 (ip), vehicle: saline): 95 % of control

CCCCCOC(=O)Nc1cccc(O)c1
T/C [5]: 95 % of control
T/C [7]: 94 % of control

CC(C)C(C)/C=C\C(C)C1CCC2C3=CC=C4CC(OC(=O)c5ccccc5)CCC4(C)C3=CCC21C (centres undefined)
T/C [15]: 93 % of control
T/C [1]: 110 % of control
T/C [2]: 96 % of control

CCCCN1CCCC(O)C1 (centres undefined)
T/C [3]: 100 % of control
T/C [4]: 100 % of control
T/C [6]: 103 % of control

Brc1ccccc1CCc1ccccc1Br
T/C [16]: 97 % of control
T/C [13]: 95 % of control
T/C [14]: 100 % of control

COc1ccc(Cl)cc1Cn1ccnc1
T/C (endpoint: mean survival time, dose: 50.0 mg/kg/injection, schedule: Q01DX001 (ip), vehicle: saline): 104 % of control
T/C [11]: 115 % of control and 102 % of control
T/C [16]: 107 % of control
T/C [17]: 107 % of control
T/C (endpoint: mean survival time, dose: 100.0 mg/kg/injection, schedule: Q01DX009 (ip), vehicle: saline): 118 % of control and 107 % of control
T/C (endpoint: mean survival time, dose: 100.0 mg/kg/injection, schedule: Q04DX002 (ip), vehicle: saline): 115 % of control and 100 % of control
T/C [13]: 115 % of control
T/C (endpoint: mean survival time, dose: 200.0 mg/kg/injection, schedule: Q04DX002 (ip), vehicle: saline): 117 % of control and 109 % of control

COc1ccc(NC(=O)NCc2cccc(Cl)c2)cc1
T/C [15]: 102 % of control
T/C [1]: 114 % of control
T/C [2]: 117 % of control

Clc1ccc(SSc2ccc(Cl)cc2Cl)c(Cl)c1
T/C (endpoint: mean survival time, dose: 100.0 mg/kg/injection, schedule: Q04DX002 (ip), vehicle: saline with Tween-80): 90 % of control
T/C (endpoint: mean survival time, dose: 200.0 mg/kg/injection, schedule: Q04DX002 (ip), vehicle: saline with Tween-80): 104 % of control
T/C (endpoint: mean survival time, dose: 400.0 mg/kg/injection, schedule: Q04DX002 (ip), vehicle: saline with Tween-80): 95 % of control

CSc1n[nH]c(N=[N+]=[N-])c1C(N)=O
T/C [5]: 96 % of control
T/C [7]: 93 % of control
T/C [10]: 101 % of control

COc1ccc(OC)c(C2=CCCCCC2)c1OC
T/C [5]: 101 % of control
T/C [7]: 101 % of control
T/C [10]: 98 % of control

CCOC(=O)C(CO)(NC(C)=O)C(=O)OCC
T/C [4]: 94 % of control
T/C [6]: 98 % of control
T/C [18]: 105 % of control

O=c1nc(OCCO)c([N+](=O)[O-])c(C(Cl)(Cl)Cl)[nH]1
T/C [5]: 96 % of control
T/C [7]: 97 % of control
T/C [10]: 89 % of control

c1ccc2c3c(c4c(c2c1)CN(C1CCCCC1)CO4)OCN(C1CCCCC1)C3
T/C (endpoint: median survival time, dose: 0.19 mg/kg/injection, schedule: Q01DX009 (ip), vehicle: other): 101 % of control
T/C (endpoint: median survival time, dose: 0.38 mg/kg/injection, schedule: Q01DX009 (ip), vehicle: other): 101 % of control
T/C (endpoint: median survival time, dose: 0.75 mg/kg/injection, schedule: Q01DX009 (ip), vehicle: other): 98 % of control
T/C (endpoint: median survival time, dose: 1.5 mg/kg/injection, schedule: Q01DX009 (ip), vehicle: other): 98 % of control

CC(=O)OCC1OC(n2cnc3c(I)nc(I)nc32)C(OC(C)=O)C1OC(C)=O (centres undefined)
T/C (endpoint: median survival time, dose: 25.0 mg/kg/injection, schedule: Q01DX005 (ip), vehicle: saline with Tween-80): 105 % of control
T/C (endpoint: median survival time, dose: 50.0 mg/kg/injection, schedule: Q01DX005 (ip), vehicle: saline with Tween-80): 95 % of control
T/C (endpoint: median survival time, dose: 100.0 mg/kg/injection, schedule: Q01DX005 (ip), vehicle: saline with Tween-80): 96 % of control
T/C (endpoint: median survival time, dose: 200.0 mg/kg/injection, schedule: Q01DX005 (ip), vehicle: saline with Tween-80): 95 % of control

CCOC(=O)C(OC(=O)CC)c1ccccc1 (centres undefined)
T/C [4]: 96 % of control
T/C [6]: 100 % of control
T/C [18]: 102 % of control

[NH-]C(CO)C(=O)O.[NH-]C(CO)C(=O)O.[Pt+2] (centres undefined)
T/C (endpoint: mean survival time, dose: 0.78 mg/kg/injection, schedule: Q04DX003 (ip), vehicle: saline with Tween-80): 100 % of control
T/C (endpoint: mean survival time, dose: 1.56 mg/kg/injection, schedule: Q04DX003 (ip), vehicle: saline with Tween-80): 92 % of control
T/C (endpoint: mean survival time, dose: 3.13 mg/kg/injection, schedule: Q04DX003 (ip), vehicle: saline with Tween-80): 95 % of control
T/C (endpoint: mean survival time, dose: 3.13 mg/kg/injection, schedule: Q04DX003 (ip), vehicle: water): 100 % of control
T/C (endpoint: mean survival time, dose: 6.25 mg/kg/injection, schedule: Q04DX003 (ip), vehicle: saline with Tween-80): 97 % of control
T/C (endpoint: mean survival time, dose: 6.25 mg/kg/injection, schedule: Q04DX003 (ip), vehicle: saline): 102 % of control
T/C (endpoint: mean survival time, dose: 6.25 mg/kg/injection, schedule: Q04DX003 (ip), vehicle: water): 103 % of control
T/C (endpoint: mean survival time, dose: 12.5 mg/kg/injection, schedule: Q04DX003 (ip), vehicle: saline with Tween-80): 94 % of control
T/C (endpoint: mean survival time, dose: 12.5 mg/kg/injection, schedule: Q04DX003 (ip), vehicle: saline): 103 % of control
T/C (endpoint: mean survival time, dose: 12.5 mg/kg/injection, schedule: Q04DX003 (ip), vehicle: water): 101 % of control
T/C (endpoint: mean survival time, dose: 25.0 mg/kg/injection, schedule: Q04DX003 (ip), vehicle: saline): 100 % of control
T/C (endpoint: mean survival time, dose: 25.0 mg/kg/injection, schedule: Q04DX003 (ip), vehicle: water): 91 % of control
T/C [16]: 103 % of control
T/C (endpoint: mean survival time, dose: 50.0 mg/kg/injection, schedule: Q04DX003 (ip), vehicle: water): 94 % of control
T/C [13]: 103 % of control
T/C (endpoint: mean survival time, dose: 100.0 mg/kg/injection, schedule: Q04DX003 (ip), vehicle: water): 88 % of control
T/C [14]: 86 % of control
T/C (endpoint: mean survival time, dose: 200.0 mg/kg/injection, schedule: Q04DX003 (ip), vehicle: water): 88 % of control

Cc1ccc(OCC2CO2)cc1 (centres undefined)
T/C [17]: 104 % of control
T/C (endpoint: mean survival time, dose: 200.0 mg/kg/injection, schedule: Q01DX001 (ip), vehicle: saline): 95 % of control
T/C (endpoint: mean survival time, dose: 400.0 mg/kg/injection, schedule: Q01DX001 (ip), vehicle: saline): 102 % of control
